Assays:
[1] = cited from earlier work
[2] = in vivo
[3] = type: in vivo; details: rats; in combination with piperine

Row | Structure (SMILES) | solubility in organic solvents ([1]; benzene, chlorform, ether, ethyl acetate, dichloromethane, alcohol, acetic acid) | solubility in pet. ether ([1]; pet. ether) | solubility in water ([1]; water) | bioavailability of the drugs in blood [2] | AUC compared to drugs without piperine in equivalent doses [3] | plasma levels [3] | bioavailability in combination with piperine [2]
1 | O=C(/C=C/C=C/c1ccc2c(c1)OCO2)N1CCCCC1 [Piperine, (E, E) 1-[5-(1,3-benzodioxyl-5-yl)-1-oxo-2,4-pentadenyl] piperidine] | soluble | insoluble | insoluble | increase in the bioavailability |  |  | 
2 | NNC(=O)c1ccncc1 [isoniazid] |  |  |  |  | very high AUC | significant increase | 
3 | NC(=O)c1cnccn1 [pyrazinamide] |  |  |  |  | very high AUC | significant increase | 
4 | CO[C@H]1/C=C/O[C@@]2(C)Oc3c(C)c(O)c4c(O)c(c(/C=N/N5CCN(C)CC5)c(O)c4c3C2=O)NC(=O)/C(C)=C\C=C\[C@H](C)[C@H](O)[C@@H](C)[C@@H](O)[C@@H](C)[C@H](OC(C)=O)[C@@H]1C [rifampicin] |  |  |  |  | very high AUC | significant increase | significantly increasing the bioavailability

Reference: patent publication US5439891A (priority 1993, dated 1995)
